{
  "source": "patent US20120178147A1",
  "about": "“MICROBIAL CULTURES AND METHODS FOR ANAEROBIC BIOREMEDIATION” (priority 2009, published 2012)",
  "test_system": "sediment microcosms",
  "test": "Effect of TCC, TCS and BES on TCE dechlorination in sediment microcosms and cultures derived from them",
  "assay_type": "cell-based",
  "experimental": "In this study, microcosm is defined as: anaerobic airtight serum bottles with sediment samples, anaerobic medium, electron donor, and a chlorinated compound used as an electron acceptor. Four microcosms were set up in the anaerobic glove chamber with H2 concentration of 3% (Coy laboratory products Inc. Grass Lake, Mich.). Ten gram of homogeneously mixed sediment from either core A or core D were transferred independently into a 160 ml sterile serum bottle, and 90 ml anaerobic media with vitamin solution and 2 mM lactate were added. One hundred μL of 20 mg/L TCC stock solution in methanol and 100 μL of 20 mg/L TCS stock solution were added by pipette (Eppendorf, Calif.) to two of the four microcosms. Microcosms were capped with thick black butyl rubber stoppers and aluminum crimps. 4.5 μL pure TCE was injected with airtight syringe (Hamilton Company, Reno, Nev.) into each serum bottle. On day 130, in order to inhibit methane production in the sediment microcosms, 25 mM BES was added in to sediment-A microcosm and sediment-D microcosm with TCC and TCS with airtight syringe (Hamilton Company, Reno, Nev.). Microcosms were stored in the dark and incubated at 30° C.\nProduction of Sediment-Free Cultures. To establish sediment-free cultures from core A and core D sediment microcosms, the microcosms were shaken vigorously, and the solids were allowed to settle down. Then, using 1-inch, 21-gauge sterile needles, […] liquid (10 ml) were transferred into 89 ml sterile medium with the following contents: anaerobic medium, ATCC vitamin mix, and vitamin B12, in 160-ml serum bottles. Then, 1 ml each of 500-mM lactate stock solution and 35-μL TCE stock solution (1 mol/L in methanol) were added to form a 100 ml culture in 160-ml serum bottle. Three sediment cultures were derived from each sediment microcosm, and 12 sediment-free cultures were produced (FIG. 1). For organizational purposes, we refer to the sediment-free cultures generated from sediment-A microcosms as SCA and the sediment free cultures generated from sediment-D microcosms as DehaloR̂2, in the figures herein, the DehaloR̂2 are referred to as “SCD”. Thus, the term “SCD” and DehaloR̂2 are used interchangeably herein as the composition “SCD” was renamed “DehaloR̂2” during the course of investigation. The sediment-free cultures were kept in the dark and incubated at 30° C. After all the chlorinated electron acceptors were consumed, the cultures were re-spiked with TCE and electron donors.\nBES (2-bromoethanesulfonate) is an efficient inhibitor for the metabolism of methanogens in methanogenetic cultures because it is a structural analog and competitive inhibitor of coenzyme M, which is only found in methanogens (Dimarco et al., 1990; Sparling and Daniels, 1987). Different concentrations of BES have been used by researchers. […] In this study, in order to determine if the cause for incomplete reductive dechlorination was competition for electron donor between methanogens and TCE dechlorinating microorganisms in the microcosms, I added 25 mM BES, 70 μmol of TCE, and 5 mM lactate into two sediment microcosms, sediment-A and sediment-D with TCC and TCS. In two other sediment microcosms, I added 70 μmol of TCE and 5 mM lactate without BES.",
  "data": [
    {"smiles": "O=S(=O)(O)CCBr", "note": "[BES, 2-bromoethanesulfonic acid]", "values": [
      {"measurement": "effect on TCE reductive dechlorination", "setting": "25 mM BES", "value": "exerted some inhibition on TCE reductive dechlorination"},
      {"measurement": "methane production", "setting": "25 mM BES, two sediment microcosms", "value": "no methane was produced"},
      {"measurement": "effect on TCE dechlorination rates in sediment-free cultures", "setting": "cultures from microcosms amended with TCC, TCS, BES", "value": "slow down TCE dechlorination rates"}
    ]}
  ]
}
